Among the data in patent US12686689B2, “HPK1 inhibitor, preparation method therefor and use thereof” (WIGEN BIOMEDICINE TECHNOLOGY (SHANGHAI) CO., LTD., priority 2020, dated 2026) are IC50 values, retold here.

Bounds are passed on as bounds.

HPK1, sequence (Q92918 whole entry): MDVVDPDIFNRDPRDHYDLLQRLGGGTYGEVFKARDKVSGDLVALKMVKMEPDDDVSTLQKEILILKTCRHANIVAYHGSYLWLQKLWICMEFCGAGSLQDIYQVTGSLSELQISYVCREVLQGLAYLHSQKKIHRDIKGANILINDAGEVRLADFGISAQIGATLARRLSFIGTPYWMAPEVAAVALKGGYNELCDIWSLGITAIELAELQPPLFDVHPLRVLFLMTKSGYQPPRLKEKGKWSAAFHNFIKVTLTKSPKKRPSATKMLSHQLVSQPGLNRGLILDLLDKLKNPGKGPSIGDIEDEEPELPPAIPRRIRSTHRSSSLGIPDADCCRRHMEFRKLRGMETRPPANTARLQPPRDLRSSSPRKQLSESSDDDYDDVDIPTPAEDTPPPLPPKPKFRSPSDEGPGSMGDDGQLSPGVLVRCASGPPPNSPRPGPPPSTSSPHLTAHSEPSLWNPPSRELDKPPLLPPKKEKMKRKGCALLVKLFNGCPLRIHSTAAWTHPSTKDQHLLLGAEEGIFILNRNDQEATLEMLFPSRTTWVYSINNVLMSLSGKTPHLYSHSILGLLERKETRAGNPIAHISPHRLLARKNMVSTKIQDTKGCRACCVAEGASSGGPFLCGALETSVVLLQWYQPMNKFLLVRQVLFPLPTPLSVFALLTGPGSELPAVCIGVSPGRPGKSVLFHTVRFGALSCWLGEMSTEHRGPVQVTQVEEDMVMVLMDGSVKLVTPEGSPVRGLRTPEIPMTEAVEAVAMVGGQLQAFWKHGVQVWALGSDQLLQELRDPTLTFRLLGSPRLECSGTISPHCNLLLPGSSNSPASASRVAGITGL

This test addresses HPK1 (Homo sapiens, UniProt Q92918). In words: Inhibitory effect against enzyme activity of HPK1 (lantha Screen, PKC substrate). Type of test: biochemical. To be noted: class symbols defined as IC50 ranges, read-out: Inhibition rate (%). The procedure: Example 130: Assay of Inhibitory Effect of Compound Against Enzyme Activity of HPK1
The inhibitory effect of the compound against the enzyme activity of HPK1 was determined by using a lantha Screen method with PKC as a substrate. The process comprises the following specific steps: the HPK1 protein was incubated with the serially-diluted compound at 28° C. for 10 min followed by addition of fluoroescein-labeled PKC substrate and ATP to react for 90 min. After termination of the reaction, a Terbium-labeled antibody against phosphorylated PKC was added and incubated for 60 min. The energy transfer of Teribium and fluoroscein was monitored by detecting luminescence at 520 nm and 450 nm to quantify PKC as the level of phosphorylation of […]. Inhibition % and IC50 of the compound were calculated compared to the control group.
As for `CN1CCN2c3ccc(-c4n[nH]c5cc(C#N)c(-c6ccccc6F)cc45)cc3OCC2C1` (stereo not shown) [Compound 1, 5-(2-fluorophenyl)-3-(3-methyl-1,2,3,4,4a,5-hexahydrobenzo[b]pyrazino[1,2-d][1,4]oxazin-8-yl)-1H-indazole-6-carbonitrile], the IC50 was at most 10 nM.
The same measure for `CN1CCN2c3ccc(-c4n[nH]c5cc(C#N)c(-c6ccccc6F)cc45)cc3OC[C@@H]2C1` [Compound 1-a]: at most 10 nM; for `CN1CCN2c3ccc(-c4n[nH]c5cc(C#N)c(-c6ccccc6F)cc45)cc3OC[C@H]2C1` [Compound 1-b]: at most 10 nM.
For the molecule `COc1ccccc1-c1cc2c(-c3ccc4c(c3)OCC3CN(C)CCN43)n[nH]c2cc1C#N` (stereo not shown) [Compound 2], the IC50 is at most 10 nM.
The same measure for `Cc1ccccc1-c1cc2c(-c3ccc4c(c3)OCC3CN(C)CCN43)n[nH]c2cc1C#N` (stereo not shown) [Compound 3]: 10 to 100 nM; for `CN1CCN2c3ccc(-c4n[nH]c5cc(C#N)c(-c6c(F)cccc6F)cc45)cc3OCC2C1` (stereo not shown) [Compound 4]: 10 to 100 nM.
The same measure for `Cc1cccc(F)c1-c1cc2c(-c3ccc4c(c3)OCC3CN(C)CCN43)n[nH]c2cc1C#N` (stereo not shown) [Compound 5]: 10 to 100 nM.
As for `CN1CCN2c3ccc(-c4n[nH]c5cc(C#N)c(-c6cccc(F)c6F)cc45)cc3OCC2C1` (stereo not shown) [Compound 7], the IC50 is at least 100 nM.
Turning to `CN1CCN2c3ccc(-c4n[nH]c5cc(C#N)c(-c6cccc(C#N)c6F)cc45)cc3OCC2C1` (stereo not shown) [Compound 8], the IC50 is at most 10 nM.
With `CN1CCN2c3ccc(-c4n[nH]c5cc(C#N)c(-c6cccc(C(N)=O)c6F)cc45)cc3OCC2C1` (stereo not shown) [Compound 9], the IC50 is at most 10 nM.
Then `CN1CCN2c3ccc(-c4n[nH]c5cc(C#N)c(-c6cccc(C(=O)NCc7ccncc7)c6F)cc45)cc3OCC2C1` (stereo not shown) [Compound 10], with at most 10 nM; and `CN1CCN2c3ccc(-c4n[nH]c5cc(C#N)c(-c6cccc(NS(C)(=O)=O)c6F)cc45)cc3OCC2C1` (stereo not shown) [Compound 11], with 10 to 100 nM; and `CN1CCN2c3ccc(-c4n[nH]c5cc(C#N)c(-c6cccc(P(C)(C)=O)c6F)cc45)cc3OCC2C1` (stereo not shown) [Compound 12], with at most 10 nM.
On to `CN1CCN2c3ccc(-c4n[nH]c5cc(C#N)c(-c6cccc(S(C)(=O)=O)c6F)cc45)cc3OCC2C1` (stereo not shown) [Compound 13], for which the IC50 was at least 100 nM.
For `CNS(=O)(=O)c1cccc(-c2cc3c(-c4ccc5c(c4)OCC4CN(C)CCN54)n[nH]c3cc2C#N)c1F` (stereo not shown) [Compound 14], the IC50 was at most 10 nM.
As for `Cc1ccc(F)c(F)c1-c1cc2c(-c3ccc4c(c3)OCC3CN(C)CCN43)n[nH]c2cc1C#N` (stereo not shown) [Compound 15], the IC50 is at most 10 nM.
Consider `CNCc1cc(C)c(-c2cc3c(-c4ccc5c(c4)OCC4CN(C)CCN54)n[nH]c3cc2C#N)c(F)c1` (stereo not shown) [Compound 17], for which the IC50 is at most 10 nM.
Then `CNCc1cc(F)c(-c2cc3c(-c4ccc5c(c4)OCC4CN(C)CCN54)n[nH]c3cc2C#N)c(C(F)(F)F)c1` (stereo not shown) [Compound 19], with at most 10 nM; and `CNCc1cc(F)c(-c2cc3c(-c4ccc5c(c4)OCC4CN(C)CCN54)n[nH]c3cc2C#N)c(OC)c1` (stereo not shown) [Compound 20], with at most 10 nM.
The same measure for `CCNCc1cc(F)c(-c2cc3c(-c4ccc5c(c4)OCC4CN(C)CCN54)n[nH]c3cc2C#N)c(F)c1` (stereo not shown) [Compound 21]: at most 10 nM; for `CN1CCN2c3ccc(-c4n[nH]c5cc(C#N)c(-c6c(F)cc(C7CCCN7)cc6F)cc45)cc3OCC2C1` (stereo not shown) [Compound 22]: at most 10 nM; for `CN1CCN2c3ccc(-c4n[nH]c5cc(C#N)c(-c6c(F)cc(C7CCCCN7)cc6F)cc45)cc3OCC2C1` (stereo not shown) [Compound 23]: at most 10 nM.
As for `CN1CCN2c3ccc(-c4n[nH]c5cc(C#N)c(-c6c(F)cc(CC#N)cc6F)cc45)cc3OCC2C1` (stereo not shown) [Compound 24], the IC50 is at most 10 nM.
`COCc1cc(F)c(-c2cc3c(-c4ccc5c(c4)OCC4CN(C)CCN54)n[nH]c3cc2C#N)c(F)c1` (stereo not shown) [Compound 25]: the IC50 was at most 10 nM.
`CN1CCN2c3ccc(-c4n[nH]c5cc(C#N)c(-c6c(F)cc(C7CCCC7N)cc6F)cc45)cc3OCC2C1` (stereo not shown) [Compound 26]: the IC50 was at most 10 nM.
`CN(C)CC(=O)Nc1cc(F)c(-c2cc3c(-c4ccc5c(c4)OCC4CN(C)CCN54)n[nH]c3cc2C#N)c(F)c1` (stereo not shown) [Compound 27]: the IC50 was at most 10 nM.
For `CN1CCN2c3ccc(-c4n[nH]c5cc(C#N)c(-c6c(F)cc(NC(=O)CN7CCCC7)cc6F)cc45)cc3OCC2C1` (stereo not shown) [Compound 28], the IC50 is at most 10 nM.
In the case of `CN1CCN2c3ccc(-c4n[nH]c5cc(C#N)c(-c6c(F)cc(NC(=O)CN7CC8(COC8)C7)cc6F)cc45)cc3OCC2C1` (stereo not shown) [Compound 29], the IC50 was at most 10 nM.
With `CN1CCN2c3ccc(-c4n[nH]c5cc(C#N)c(-c6c(F)cc(NC(=O)CC#N)cc6F)cc45)cc3OCC2C1` (stereo not shown) [Compound 30], the IC50 was at most 10 nM.
On to `CN1CCN2c3ccc(-c4n[nH]c5cc(C#N)c(-c6c(F)cc(NC(=O)Cc7cccnc7)cc6F)cc45)cc3OCC2C1` (stereo not shown) [Compound 31], for which the IC50 was 10 to 100 nM.
Consider `CN1CCN2c3ccc(-c4n[nH]c5cc(C#N)c(-c6c(F)cc(OCc7ccncc7)cc6F)cc45)cc3OCC2C1` (stereo not shown) [Compound 32], for which the IC50 was at most 10 nM.
Then `CN1CCC(Oc2cc(F)c(-c3cc4c(-c5ccc6c(c5)OCC5CN(C)CCN65)n[nH]c4cc3C#N)c(F)c2)CC1` (stereo not shown) [Compound 33], with at most 10 nM; and `CN1CCN2c3ccc(-c4n[nH]c5cc(C#N)c(-c6c(F)cc(OC(=O)N(C)C)cc6F)cc45)cc3OCC2C1` (stereo not shown) [Compound 34], with 10 to 100 nM; and `CN1CCN2c3ccc(-c4n[nH]c5cc(C#N)c(-c6c(F)cc(C(=O)N7CC(O)C7)cc6F)cc45)cc3OCC2C1` (stereo not shown) [Compound 36], with at most 10 nM.
Consider `CN1CCN2c3ccc(-c4n[nH]c5cc(C#N)c(-c6c(F)ccc7c6CCNC7)cc45)cc3OCC2C1` (stereo not shown) [Compound 37], for which the IC50 was at most 10 nM.
With `CN1CCN2c3ccc(-c4n[nH]c5cc(C#N)c(-c6c(F)ccc7c6CCCC7N)cc45)cc3OCC2C1` (stereo not shown) [Compound 38], the IC50 was at most 10 nM.
Turning to `CN1CCN2c3ccc(-c4n[nH]c5cc(C#N)c(-c6c(F)cc7c(c6F)CC(N)CC7)cc45)cc3OCC2C1` (stereo not shown) [Compound 39], the IC50 is at most 10 nM.
For `CN1CCN2c3ccc(-c4n[nH]c5cc(C#N)c(-c6ccc(-c7ccccn7)cc6F)cc45)cc3OCC2C1` (stereo not shown) [Compound 40], the IC50 is 10 to 100 nM.
For `CN1CCN2c3ccc(-c4n[nH]c5cc(C#N)c(-c6cccnc6)cc45)cc3OCC2C1` (stereo not shown) [Compound 41], the IC50 was at most 10 nM.
Consider `CN1CCN2c3ccc(-c4n[nH]c5cc(C#N)c(-c6ncccc6F)cc45)cc3OCC2C1` (stereo not shown) [Compound 42], for which the IC50 was at most 10 nM.
For `COc1ccncc1-c1cc2c(-c3ccc4c(c3)OCC3CN(C)CCN43)n[nH]c2cc1C#N` (stereo not shown) [Compound 44], the IC50 is at most 10 nM.
With `Cc1cncc(-c2cc3c(-c4ccc5c(c4)OCC4CN(C)CCN54)n[nH]c3cc2C#N)c1` (stereo not shown) [Compound 45], the IC50 is at most 10 nM.
The same measure for `CNC(=O)c1cncc(-c2cc3c(-c4ccc5c(c4)OCC4CN(C)CCN54)n[nH]c3cc2C#N)c1` (stereo not shown) [Compound 46]: at most 10 nM.
As to `Cc1n[nH]cc1-c1cc2c(-c3ccc4c(c3)OCC3CN(C)CCN43)n[nH]c2cc1C#N` (stereo not shown) [Compound 47], the IC50 is at most 10 nM.
The same measure for `CN1CCN2c3ccc(-c4n[nH]c5cc(C#N)c(-c6cncnc6)cc45)cc3OCC2C1` (stereo not shown) [Compound 48]: at most 10 nM; for `CN1CCN2c3ccc(-c4n[nH]c5cc(C#N)c(-c6cnccn6)cc45)cc3OCC2C1` (stereo not shown) [Compound 49]: at most 10 nM.
Turning to `CN1CCN2c3ccc(-c4n[nH]c5cc(C#N)c(-c6cccc7[nH]ncc67)cc45)cc3OCC2C1` (stereo not shown) [Compound 50], the IC50 was at most 10 nM.
Regarding `CN1CCN2c3ccc(-c4n[nH]c5cc(C#N)c(-c6cnc7cnn(C)c7c6)cc45)cc3OCC2C1` (stereo not shown) [Compound 51], the IC50 was at most 10 nM.
For the molecule `CN1CCN2c3ccc(-c4n[nH]c5cc(C#N)c(-c6cnc7c(c6)ncn7C)cc45)cc3OCC2C1` (stereo not shown) [Compound 52], the IC50 was at most 10 nM.
With `CN1CCN2c3ccc(-c4n[nH]c5cc(C#N)c(-c6cnc7nccnc7c6)cc45)cc3OCC2C1` (stereo not shown) [Compound 53], the IC50 was at most 10 nM.
Regarding `CN1CCN2c3ccc(-c4n[nH]c5cc(C#N)c(-c6cncc7ccccc67)cc45)cc3OCC2C1` (stereo not shown) [Compound 54], the IC50 lay in the range of 10 to 100 nM.
Consider `CN1CCN2c3ccc(-c4n[nH]c5cc(C#N)c(-c6cccn7ccnc67)cc45)cc3OCC2C1` (stereo not shown) [Compound 55], for which the IC50 is at most 10 nM.
For `CN1CCN2c3ccc(-c4n[nH]c5cc(C#N)c(-c6cccn7cnnc67)cc45)cc3OCC2C1` (stereo not shown) [Compound 56], the IC50 was at most 10 nM.
As to `CN1CCN2c3ccc(-c4n[nH]c5cc(C#N)c(-c6cccn7ncnc67)cc45)cc3OCC2C1` (stereo not shown) [Compound 57], the IC50 is at most 10 nM.
The same measure for `CN1CCN2c3ccc(-c4n[nH]c5cc(C#N)c(-c6cnc7ccnn7c6)cc45)cc3OCC2C1` (stereo not shown) [Compound 58]: at most 10 nM.
Consider `CN1CCN2c3ccc(-c4n[nH]c5cc(C#N)c(-c6ccc7nccn7c6)cc45)cc3OCC2C1` (stereo not shown) [Compound 59], for which the IC50 was at most 10 nM.
As for `CN1CCN2c3ccc(-c4n[nH]c5cc(C#N)c(-c6ccn7ncnc7c6)cc45)cc3OCC2C1` (stereo not shown) [Compound 60], the IC50 is at most 10 nM.
Turning to `CN1CCN2c3ccc(-c4n[nH]c5cc(C#N)c(-c6ccn7cnnc7c6)cc45)cc3OCC2C1` (stereo not shown) [Compound 61], the IC50 was at most 10 nM.
Turning to `CN1CCN2c3ccc(-c4n[nH]c5cc(C#N)c(-c6cnn7ccccc67)cc45)cc3OCC2C1` (stereo not shown) [Compound 62], the IC50 fell in the range of 10 to 100 nM.
Regarding `CN1CCN2c3ccc(-c4n[nH]c5cc(C#N)c(-c6cnn7cccnc67)cc45)cc3OCC2C1` (stereo not shown) [Compound 63], the IC50 was at most 10 nM.
As to `COc1cccc(F)c1-c1cc2c(-c3ccc4c(c3)OCC3CN(C)CCN43)n[nH]c2cn1` (stereo not shown) [Compound 64], the IC50 is at most 10 nM.
